Test results from patent publication EP0612525B1, “Transdermal treatment with mast cell degranulating agents for drug-induced hypersensitivity” (BRISTOL-MYERS SQUIBB COMPANY, priority 1993, dated 1994).

Legend:
BALB/c female mice = assay: Contact hypersensitivity, TNBS sensitization / TNCB ear challenge (ear swelling); type: in vivo; settings: for % SUPPRESSION: TNBS 2.45 mg
[1] = In vitro drug permeation from plastisol patches through human skin (paper example); type: in vitro ADME

SMILES: O=C(O)c1cc(=O)c2c(OCC(O)COc3cccc4oc(C(=O)O)cc(=O)c34)cccc2o1 [sodium cromolyn, reference compound]
- suppression of contact sensitization (in words) (BALB/c female mice; 20 µg intradermally): failed to suppress contact sensitization
- enhancement in the contact sensitivity response (BALB/c female mice; 20 µg intradermally, 24 and 48 hours together): 14-17%
- % SUPPRESSION (BALB/c female mice; 20 µg intradermally, 24 Hours): +14.1%
- % SUPPRESSION (BALB/c female mice; 20 µg intradermally, 48 Hours): +17.0%

SMILES: CCN(CC)CCCC(C)Nc1ccnc2cc(Cl)ccc12 (stereo not shown) [chloroquine, Chloroquine, reference compound]
- % SUPPRESSION (BALB/c female mice; 200 µg intradermally, 24 Hours): 39.6%
- % SUPPRESSION (BALB/c female mice; 200 µg intradermally, 48 Hours): 46.5%

SMILES: CCCCCCCC/C=C\CCCCCCCC(=O)O [oleic acid]
- permeation rate of ISDN [1]: significantly enhances
